Measurements as given in ChEMBL document CHEMBL3822426, “A cascade screening approach for the identification of Bcr-Abl myristate pocket binders active against wild type and T315I mutant” (Bioorg Med Chem Lett, 2016).
The source made the active and inactive calls. No cut-off for these calls is given here.

Key:
[1] = system: Bcr/Abl fusion protein (Homo sapiens), P00519+P11274 [T315I]; assay: Inhibition of BCR/ABL T315I mutant (unknown origin) expressed in mouse 32D cells assessed as reduction in CRKL phosphorylation at Tyr-207 residue at 1 uM after 24 hrs by Western blot analysis; format: cell-based
[2] = Cytotoxicity against imatinib mesylate resistant mouse 32D cells expressing BCR/ABL T315I mutant assessed as reduction in cell viability after 48 hrs by cell counting method; format: functional, cell-based
[3] = Cytotoxicity against mouse 32D cells assessed as reduction in cell viability at 0.5 to 50 uM after 48 hrs by cell counting method; format: cell-based
[4] = Cytotoxicity against imatinib mesylate sensitive mouse 32D cells expressing wild type BCR/ABL p210 assessed as reduction in cell viability after 48 hrs by cell counting method; format: functional, cell-based
[5] = biological target: Tyrosine-protein kinase ABL1 (Homo sapiens, UniProt P00519, T315I); assay: Allosteric inhibition of recombinant human N-terminal His6-tagged ABL (27-end residues) T315I mutant expressed in baculovirus infected sf21 cells using Abl-tide as substrate incubated for 10 mins in presence of [gamma32P]ATP by scintillation counting method
[6] = system: Tyrosine-protein kinase ABL1 (Homo sapiens), P00519 [T315I]; details: Sf21, 25 uM
Description: Allosteric inhibition of recombinant human N-terminal His6-tagged ABL (27-end residues) T315I mutant expressed in baculovirus infected sf21 cells assessed as Vmax(app) for ATP at 25 uM incubated for 10 mins in presence of [gamma32P]ATP by scintillation counting method

[7] = biological target: Tyrosine-protein kinase ABL1 (Homo sapiens) (UniProt P00519); details: 25 uM
Description: Allosteric inhibition of recombinant wild type ABL (unknown origin) assessed as Vmax(app) for ATP at 25 uM incubated for 10 mins in presence of [gamma32P]ATP by scintillation counting method

[8] = system: Tyrosine-protein kinase ABL1 (Homo sapiens), P00519 [T315I]; details: Sf21, 100 uM
Description: Allosteric inhibition of recombinant human N-terminal His6-tagged ABL (27-end residues) T315I mutant expressed in baculovirus infected sf21 cells assessed as Vmax(app) for ATP at 100 uM incubated for 10 mins in presence of [gamma32P]ATP by scintillation counting method

[9] = system: Tyrosine-protein kinase ABL1 (Homo sapiens), P00519 [T315I]; details: Sf21, 50 uM
Description: Allosteric inhibition of recombinant human N-terminal His6-tagged ABL (27-end residues) T315I mutant expressed in baculovirus infected sf21 cells assessed as Vmax(app) for ATP at 50 uM incubated for 10 mins in presence of [gamma32P]ATP by scintillation counting method

[10] = biological target: Tyrosine-protein kinase ABL1 (Homo sapiens) (UniProt P00519); details: 50 uM
Description: Allosteric inhibition of recombinant wild type ABL (unknown origin) assessed as Vmax(app) for ATP at 50 uM incubated for 10 mins in presence of [gamma32P]ATP by scintillation counting method

[11] = biological target: Tyrosine-protein kinase ABL1 (Homo sapiens) (UniProt P00519); details: 100 uM
Description: Allosteric inhibition of recombinant wild type ABL (unknown origin) assessed as Vmax(app) for ATP at 100 uM incubated for 10 mins in presence of [gamma32P]ATP by scintillation counting method

Row | SMILES | inhibition [1] | IC50 [2] [µM] | Activity [3] | IC50 [4] [µM] | IC50 [5] [µM] | Vmax(app) [6] [pmol/min] | Vmax(app) [7] [pmol/min] | Vmax(app) [8] [pmol/min] | Vmax(app) [9] [pmol/min] | Vmax(app) [10] [pmol/min] | Vmax(app) [11] [pmol/min]
1 | C(=C\n1ncc2c(N3CCCCCC3)ncnc21)/c1ccccc1 | Active | 13.8 | Non-toxic | 1.2 | 20 | – | – | – | – | – | –
2 | C(=C\n1ncc2c(NC3CCCCC3)ncnc21)/c1ccccc1 | Active | 25.1 | Non-toxic | 8.5 | 50 | 15 | 13.1 | 4.95 | 8.06 | 8.57 | 5.83
